Measured values from patent US11274283B2 (priority 2014, dated 2022).

How the values were obtained:
[1] = test system: Ralstonia solanacearum tyrosinase; assay type: biochemical; conditions: up to 400 mM
[2] = test system: mushroom tyrosinase; assay: Inhibition of mushroom tyrosinase; assay type: biochemical; conditions: cannot complete the reaction
[3] = test system: mushroom tyrosinase; conditions: at 5 mM; scientific literature; cited from earlier work

## O=C1O[C@H]([C@@H](O)CO)C([O-])=C1O.[Na+] [ascorbic acid sodium salt]
[1]
  inhibition of Ralstonia solanacearum tyrosinase activity: No inhibition

## OCCc1ccc(O)cc1 [tyrosol, 4-(2-hydroxyethyl)phenol]
[2]
  tyrosol concentration above which commercial mushroom tyrosinase is inhibited: above 10 g/l

## O=C1O[C@H]([C@@H](O)CO)C(O)=C1O [ascorbic acid]
[3]
  inhibition of mushroom tyrosinase: inhibition
